From patent US8026378B2, “Glyceryl ether compounds and their use” (Segetis, Inc., priority 2005, dated 2011)

Assay: Emulsifying properties: hexane/water emulsions
Assay type: physicochemical
Conditions: for emulsifying properties on addition of salt: addition of 0.2% calcium chloride or magnesium chloride, mixture of isomers; for stability of emulsions of water in hexane: aqueous solutions of the mixture of isomers
Excerpt: […] The emulsifying properties of compounds (12a) and (12b) were not disrupted by the addition of 0.2% calcium chloride or magnesium chloride.

| emulsifying properties on addition of salt | Compound | stability of emulsions of water in hexane |
| --- | --- | --- |
| not disrupted | CCCCCCCCC(CO)OCC(O)CO (stereo not drawn) [Compound 12b] | – |
| not substantially disrupted | CCCCCCCCCCCCCCCCC(O)COCC(O)CO (stereo not drawn) [Compound 13a] | able to support stability of emulsions of water in hexane |
| not substantially disrupted | CCCCCCCCCCCCCCCCC(CO)OCC(O)CO (stereo not drawn) [Compound 13b] | able to support stability of emulsions of water in hexane |
| not disrupted | CCCCCCCCC(O)COCC(O)CO (stereo not drawn) [Compound 12a] | – |
